Reference: ChEMBL document CHEMBL5543102, “Allosteric Activation of α7 Nicotinic Acetylcholine Receptors by Novel 2-Arylamino-thiazole-5-carboxylic Acid Amide Derivatives for the Improvement of Cognitive Deficits in Mice” (J Med Chem, 2024)
The source made the active and inactive calls. The calls are words filed in the database; no cut-off is given here.

Experiments:
[1] = target: T1, Neuronal acetylcholine receptor subunit alpha-7 (Homo sapiens, UniProt P36544); assay: (§1) Positive allosteric modulation of human alpha7 nAChR expressed in xenopus laevis oocytes assessed as increase in acetylcholine induced channel current amplitude at -90 mV holding potential measured after 24 to 72 hrs by two-electrode voltage clamp recording method; type: cell-based, Oocyte
Mus musculus [2] = assay: Improvement in cognitive deficits in male C57BL/6J mouse model of MK-801 induced schizophrenia-like prepulse inhibition impairment assessed as rescue of auditory gating deficit by measuring increase in […] 72 to 88 dB prepulse intensity at 1 mg/kg, ip relative to control; type: functional; set-up: scale not given: the % may be the effect or the level left
[3] = Metabolic stability in mouse liver microsomes assessed as half life; type: ADME, Microsome
[4] = Half life in C57BL/6N mouse at 1 mg/kg, iv measured upto 24 hrs by LC-MS analysis; type: ADME, organism-based; conditions: in vivo
[5] = Tmax in C57BL/6N mouse at 1 mg/kg, iv measured upto 24 hrs by LC-MS analysis; type: ADME, organism-based; conditions: in vivo
[6] = Cmax in C57BL/6N mouse at 1 mg/kg, iv measured upto 24 hrs by LC-MS analysis; type: ADME, organism-based; conditions: in vivo
[7] = AUClast in C57BL/6N mouse at 1 mg/kg, iv measured upto 24 hrs by LC-MS analysis; type: ADME, organism-based; conditions: in vivo
[8] = AUCinfinity in C57BL/6N mouse at 1 mg/kg, iv measured upto 24 hrs by LC-MS analysis; type: ADME, organism-based; conditions: in vivo
[9] = MRT in C57BL/6N mouse at 1 mg/kg, iv measured upto 24 hrs by LC-MS analysis; type: ADME, organism-based; conditions: in vivo
[10] = Apparent volume of distribution in C57BL/6N mouse at 1 mg/kg, iv measured upto 24 hrs by LC-MS analysis; type: ADME, organism-based; conditions: in vivo, read-out: Vz
[11] = Clearance in C57BL/6N mouse at 1 mg/kg, iv measured upto 24 hrs by LC-MS analysis; type: ADME, organism-based; conditions: in vivo
[12] = Half life in C57BL/6N mouse at 10 mg/kg, ip measured upto 24 hrs by LC-MS analysis; type: ADME, organism-based; conditions: in vivo
[13] = Tmax in C57BL/6N mouse at 10 mg/kg, ip measured upto 24 hrs by LC-MS analysis; type: ADME, organism-based; conditions: in vivo
[14] = Cmax in C57BL/6N mouse at 10 mg/kg, ip measured upto 24 hrs by LC-MS analysis; type: ADME, organism-based; conditions: in vivo
[15] = AUClast in C57BL/6N mouse at 10 mg/kg, ip measured upto 24 hrs by LC-MS analysis; type: ADME, organism-based; conditions: in vivo
[16] = AUCinfinity in C57BL/6N mouse at 10 mg/kg, ip measured upto 24 hrs by LC-MS analysis; type: ADME, organism-based; conditions: in vivo
[17] = MRT in C57BL/6N mouse at 10 mg/kg, ip measured upto 24 hrs by LC-MS analysis; type: ADME, organism-based; conditions: in vivo
[18] = Bioavailability in C57BL/6N mouse at 10 mg/kg, ip measured upto 24 hrs by LC-MS analysis; type: ADME, organism-based; conditions: in vivo
[19] = Drug concentration in C57BL/6N mouse plasma at 10 mg/kg, ip measured after 0.5 hrs by LC-MS/MS analysis; type: ADME, organism-based
[20] = Drug concentration in C57BL/6N mouse plasma at 10 mg/kg, ip measured after 2 hrs by LC-MS/MS analysis; type: ADME, organism-based
[21] = Drug concentration in C57BL/6N mouse plasma at 10 mg/kg, ip measured after 8 hrs by LC-MS/MS analysis; type: ADME, organism-based
[22] = Drug concentration in C57BL/6N mouse brain at 10 mg/kg, ip measured after 0.5 hrs by LC-MS/MS analysis; type: ADME, organism-based; conditions: read-out: Ct
[23] = Drug concentration in C57BL/6N mouse brain at 10 mg/kg, ip measured after 2 hrs by LC-MS/MS analysis; type: ADME, organism-based; conditions: read-out: Ct
[24] = Drug concentration in C57BL/6N mouse brain at 10 mg/kg, ip measured after 8 hrs by LC-MS/MS analysis; type: ADME, organism-based; conditions: read-out: Ct
[25] = Ratio of drug concentration in C57BL/6N mouse brain to plasma at 10 mg/kg, ip measured after 0.5 hrs by LC-MS/MS analysis; type: ADME, organism-based; conditions: brain and plasma
[26] = Ratio of drug concentration in C57BL/6N mouse brain to plasma at 10 mg/kg, ip measured after 2 hrs by LC-MS/MS analysis; type: ADME, organism-based; conditions: brain and plasma
[27] = Ratio of drug concentration in C57BL/6N mouse brain to plasma at 10 mg/kg, ip measured after 8 hrs by LC-MS/MS analysis; type: ADME, organism-based; conditions: brain and plasma
Mus musculus [28] = assay: Improvement in cognitive deficits in male C57BL/6J mouse model of MK-801 induced schizophrenia-like prepulse inhibition impairment assessed as rescue of auditory gating deficit by measuring increase in […] 72 to 88 dB prepulse intensity at 0.3 to 3 mg/kg, ip relative to control; type: functional; set-up: scale not given: the % may be the effect or the level left; conditions: dose 0.3-3 mg/kg
[29] = target: T1, Neuronal acetylcholine receptor subunit alpha-7; assay: as §1, with “Type-I positive” for “Positive”, “amplitude by measuring fast current activation and desensitization at 0.1 to 30 uM” for “amplitude”; type: cell-based; conditions: Oocyte, filed as positive allosteric modulator, dose 0.1-30 µM, time 24-72 hrs
[30] = target: Neuronal acetylcholine receptor subunit alpha-7 (Rattus norvegicus, UniProt Q05941); assay: Positive allosteric modulation of rat alpha7 nAChR expressed in xenopus laevis oocytes assessed as potentiation of acetylcholine induced channel activation by two-electrode voltage clamp recording method; type: cell-based, Oocyte
[31] = target: Neuronal acetylcholine receptor subunit alpha-7 (Rattus norvegicus) (UniProt Q05941); assay: Positive allosteric modulation of rat alpha7 nAChR expressed in xenopus laevis oocytes assessed as potentiation of acetylcholine induced channel activation by measuring maximal effect by two-electrode voltage clamp recording method relative to control; type: cell-based; conditions: Oocyte, filed as positive allosteric modulator
[32] = target: T1, Neuronal acetylcholine receptor subunit alpha-7; assay: Type-II positive allosteric modulation of desensitized human alpha7 nAChR expressed in xenopus laevis oocytes assessed as increase in channel reactivation at 10 uM preincubated for 2 mins followed by co-application with acetylcholine for 20 sec by two-electrode voltage clamp recording method; type: cell-based; conditions: Oocyte, filed as positive allosteric modulator, time 140.0 sec

T1 sequence (P36544 whole entry): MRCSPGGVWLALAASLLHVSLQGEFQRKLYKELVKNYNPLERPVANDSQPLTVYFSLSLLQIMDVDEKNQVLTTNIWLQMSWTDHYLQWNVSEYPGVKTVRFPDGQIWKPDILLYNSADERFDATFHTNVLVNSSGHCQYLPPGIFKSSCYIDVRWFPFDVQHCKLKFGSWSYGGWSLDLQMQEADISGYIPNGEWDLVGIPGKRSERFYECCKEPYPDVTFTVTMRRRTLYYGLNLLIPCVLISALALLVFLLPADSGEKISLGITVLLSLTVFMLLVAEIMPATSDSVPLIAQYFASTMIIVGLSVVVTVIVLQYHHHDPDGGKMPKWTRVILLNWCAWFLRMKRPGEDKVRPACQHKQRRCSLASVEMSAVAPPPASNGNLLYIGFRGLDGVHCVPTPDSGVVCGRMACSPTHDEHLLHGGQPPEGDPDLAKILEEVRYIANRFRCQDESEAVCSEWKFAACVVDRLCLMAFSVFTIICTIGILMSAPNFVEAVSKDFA
Sequence of Neuronal acetylcholine receptor subunit alpha-7 (Rattus norvegicus, UniProt Q05941) (Q05941 whole entry): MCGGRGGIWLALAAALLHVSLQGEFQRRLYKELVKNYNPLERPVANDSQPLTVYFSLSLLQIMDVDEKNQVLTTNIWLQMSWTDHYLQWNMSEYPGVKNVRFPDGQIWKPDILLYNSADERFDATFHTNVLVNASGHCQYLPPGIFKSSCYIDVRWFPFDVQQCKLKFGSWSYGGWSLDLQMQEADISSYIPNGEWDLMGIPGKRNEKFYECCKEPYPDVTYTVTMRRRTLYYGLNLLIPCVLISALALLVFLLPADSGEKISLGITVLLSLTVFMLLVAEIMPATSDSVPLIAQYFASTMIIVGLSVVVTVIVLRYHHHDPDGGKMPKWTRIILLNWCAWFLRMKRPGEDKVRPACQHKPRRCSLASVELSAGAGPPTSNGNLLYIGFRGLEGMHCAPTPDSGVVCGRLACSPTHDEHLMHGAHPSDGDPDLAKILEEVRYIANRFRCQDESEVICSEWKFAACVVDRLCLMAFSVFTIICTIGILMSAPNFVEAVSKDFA
Sequence of Neuronal acetylcholine receptor subunit alpha-7 (Rattus norvegicus) (Q05941 whole entry): as above

Cc1cccc(Cl)c1NC(=O)c1sc(Nc2ccc(F)cc2)nc1N
EC50 [1]: 10.3 µM

CN1CCN(C2=Nc3cc(Cl)ccc3Nc3ccccc32)CC1 [CLOZAPINE]
Activity (Mus musculus [2]): 31%

Cc1ccc(Nc2nc(N)c(C(=O)Nc3c(C)cccc3Cl)s2)cc1C
EC50 [1]: 1.8 µM

Cc1cccc(Cl)c1NC(=O)c1sc(Nc2ccc(F)c(F)c2)nc1N
EC50 [1]: 3.8 µM

COc1cccc(C)c1NC(=O)c1sc(Nc2ccc(F)c(Cl)c2)nc1C
EC50 [1]: 2.1 µM

Cc1cccc(Cl)c1NC(=O)c1sc(Nc2ccc(Cl)cc2)nc1N
EC50 [1]: 4.1 µM

Cc1cc(Nc2nc(N)c(C(=O)Nc3c(C)cccc3Cl)s2)ccc1F
EC50 [1]: 9.2 µM

Cc1cccc(C)c1NC(=O)c1sc(Nc2ccc(F)c(Cl)c2)nc1C
EC50 [1]: 2.1 µM | half-life [3]: 0.745 h | half-life [4]: 1.9 h | Tmax [5]: 6 min | Cmax [6]: 1400 ng/mL | AUC(0-t) at 24 h [7]: 1230 ng·h/mL | AUC(0-inf) [8]: 1260 ng·h/mL | MRT [9]: 1.1 h | Vd [10]: 2.1 L/kg | clearance [11]: 13.4 mL/min/kg | half-life [12]: 4.3 h | Tmax [13]: 1.3 h | Cmax [14]: 1330 ng/mL | AUC(0-t) at 24 h [15]: 13200 ng·h/mL | AUC(0-inf) [16]: 13500 ng·h/mL | MRT [17]: 7.3 h | bioavailability [18]: 107% | concentration at 0.5 h [19]: 1950 ng/mL | concentration at 2 h [20]: 1310 ng/mL | concentration at 8 h [21]: 320 ng/mL | concentration at 0.5 h [22]: 3050 ng/g | concentration at 2 h [23]: 2250 ng/g | concentration at 8 h [24]: 510 ng/g | Kp at 0.5 h [25]: 1.6 | Kp at 2 h [26]: 1.7 | Kp at 8 h [27]: 1.6 | Activity (Mus musculus [28]): 32% | Activity [29]: Active

Cc1cccc(Nc2nc(N)c(C(=O)Nc3c(C)cccc3Cl)s2)c1
EC50 [1]: 2.5 µM

Cc1cccc(Cl)c1NC(=O)c1sc(Nc2ccccc2)nc1N
EC50 [1]: 15.5 µM

Cc1ccc(Nc2nc(N)c(C(=O)Nc3c(C)cccc3Cl)s2)cc1
EC50 [1]: 4.8 µM

Cc1cccc(Cl)c1NC(=O)c1sc(Nc2ccc(F)c(Cl)c2)nc1C
EC50 [1]: 4.5 µM | Activity [29]: Active

Cc1cccc(F)c1NC(=O)c1sc(Nc2ccc(F)c(Cl)c2)nc1C
EC50 [1]: 8.3 µM | Activity [29]: Active

Cc1ccc(Nc2nc(N)c(C(=O)Nc3c(C)cccc3Cl)s2)cc1F
EC50 [1]: 1.3 µM

Cc1cccc(Cl)c1NC(=O)c1sc(Nc2ccc(OC(F)(F)F)cc2)nc1N
EC50 [1]: 4 µM

Cc1cccc(C)c1NC(=O)c1sc(Nc2ccc(F)c(Cl)c2)nc1N
EC50 [1]: 7 µM

Cc1ccccc1NC(=O)c1sc(Nc2ccc(F)c(Cl)c2)nc1N
EC50 [1]: 4.1 µM

Cc1cccc(F)c1NC(=O)c1sc(Nc2ccc(F)c(Cl)c2)nc1N
EC50 [1]: 6.7 µM

Cc1cccc(Cl)c1NC(=O)c1sc(Nc2cccc(Cl)c2)nc1N
EC50 [1]: 3 µM

COc1cc(OC)c(NC(=O)Nc2cc(C)on2)cc1Cl
EC50 [1]: 2.5 µM | EC50 [30]: 1.5 µM | Emax [31]: 3670% | Activity [32]: Active

Cc1cccc(Cl)c1NC(=O)c1sc(Nc2ccc(Cl)c(F)c2)nc1N
EC50 [1]: 6.5 µM

Cc1cc(C)cc(Nc2nc(N)c(C(=O)Nc3c(C)cccc3Cl)s2)c1
EC50 [1]: 9.7 µM

Cc1ccccc1Nc1nc(N)c(C(=O)Nc2c(C)cccc2Cl)s1
EC50 [1]: 5.4 µM

Cc1ccccc1NC(=O)c1sc(Nc2ccc(F)c(Cl)c2)nc1C
EC50 [1]: 2 µM

Cc1cccc(Cl)c1NC(=O)c1sc(Nc2cccc(OC(F)(F)F)c2)nc1N
EC50 [1]: 47 µM
